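Compound exposure: 48 hours, 5 concentrations, 96-well plates. GI50 marks 50% less growth.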 Calls of active or inactive are those of the source. Cut-off read from the data, not from the text of the source: active = GI50 up to about 1.1 µM and inactive = higher.
Key:
Test in all cases: NCI anticancer screen, dose series, 48 h
[1] = tested on: A549
[2] = tested on: COLO 205
[3] = tested on: EKVX
[4] = tested on: HOP-62
[5] = tested on: HOP-92
[6] = tested on: HT-29
[7] = tested on: KM12
[8] = tested on: M14
[9] = tested on: OVCAR-3
[10] = tested on: OVCAR-4
[11] = tested on: OVCAR-8
[12] = tested on: SK-OV-3
[13] = tested on: SN12C
[14] = tested on: SNB-19
[15] = tested on: SW-620
[16] = tested on: TK-10
[17] = tested on: U-251
[18] = tested on: UACC-257
[19] = tested on: UACC-62
[20] = tested on: UO-31

Row | Compound | GI50 [1] | GI50 [2] | GI50 [3] | GI50 [4] | GI50 [5] | GI50 [6] | GI50 [7] | GI50 [8] | GI50 [9] | GI50 [10] | GI50 [11] | GI50 [12] | GI50 [13] | GI50 [14] | GI50 [15] | GI50 [16] | GI50 [17] | GI50 [18] | GI50 [19] | GI50 [20]
1 | O=c1cc(O)c1=O | > 100 µM (inactive) | > 100 µM (inactive) | > 100 µM (inactive) | > 100 µM (inactive) | > 100 µM (inactive) | > 100 µM (inactive) | > 100 µM (inactive) | > 100 µM (inactive) | > 100 µM (inactive) | > 100 µM (inactive) | > 100 µM (inactive) | > 100 µM (inactive) | > 100 µM (inactive) | > 100 µM (inactive) | > 100 µM (inactive) | > 100 µM (inactive) | > 100 µM (inactive) | > 100 µM (inactive) | > 100 µM (inactive) | > 100 µM (inactive)
2 | CCc1ncc(C(C)(O)c2ccccc2)n1Cc1ccccc1 (stereo not given) | 35.5 µM (inactive) | 27.8 µM (inactive) | 56.2 µM (inactive) | < 0.01 µM (active) | 67.3 µM (inactive) | 31.8 µM (inactive) | 31 µM (inactive) | 0.294 µM (active) | 40.6 µM (inactive) | 35.8 µM (inactive) | 36.1 µM (inactive) | 67.6 µM (inactive) | 21.7 µM (inactive) | 42.4 µM (inactive) | 31.6 µM (inactive) | 33.5 µM (inactive) | 34.6 µM (inactive) | 29.4 µM (inactive) | 20.9 µM (inactive) | 55.1 µM (inactive)
